Legend:
W&Wlis cells [1] = assay: DNA content analysis by flow cytometry, labeling with propidium iodide; assay type: cell-based, canine; set-up: unit not given here; conditions: Without GO
W&Wlis cells [2] = assay: Cell viability analysis by MTT; assay type: cell-based, canine
Method: The mitochondrial enzymatic activity as indicative of cell viability was determined by means of using tetrazolium salts. In this assay 10^5 cells/test tube (culture test tubes with a flat side and screw-on cap to prevent the exit of HCN; Nunc) or 10^4 cells/well of 24-well plates closed with parafilm were seeded. After 24 hours of incubation fresh culture medium supplemented with the concentrations of linamarin (between 50 and 500 μg/ml) and glucose oxidase (5 mEU/ml) necessary for each experiment was added. In the assays in which it applied, the medium was supplemented with N-acetyl cysteine (10 mM), 1,5-isoquinolinediol (300 μM) or Z-VAD-fmk (100 μM). After the time stipulated in each experiment (between 12 and 96 hours), the culture medium was removed and fresh medium with 200 μg/mL of MTT (3-[4,5-dimethylthiazo-2-yl]-2,5-diphenyl tetrazolium bromide) was added. After 1.5 hours of incubation, the medium was removed and 3 ml (for the test tubes) or 1 ml (for the 24-well plates) of dimethyl sulfoxide was added to dissolve the formazan. After 10 minutes, the absorbance of the samples at 540 nm was determined. MTT is a tetrazolium salt soluble in aqueous medium (yellow) which is transformed by the mitochondrial dehydrogenases in formazan, an insoluble compound in aqueous medium (purple).

GB-LP-1 cells = assay: Survival by MTT of GB-LP-1 explant cells infected with adenolis; assay type: cell-based, human; conditions: 500 μg/ml linamarin; even at MOI: 1
Method: The behavior of the lis/lin therapy in one of the explants (GB-LP-1) was additionally analyzed. These cells were infected with adenolis (MOI: 0, 1, 12, 100 and 500) and the survival and production of cyanide after the addition of 500 μg/ml linamarin (FIGS. 6G and 6H, respectively) were studied.
10^5 cells (W&W and patient explants) were seeded in test tubes with a flat side and screw-on cap (Nunc), or 5×10^4 cells were seeded on cover slips in 24-well plates and were simultaneously infected with adenolis (Crucell) at different multiplicities of infection (MOI: 0; 0.2; 1; 10; 100 or 500). For the cells seeded in test tubes, the medium was changed after 24 hours adding 0.5 mg/ml of linamarin where appropriate. A cell viability assay was conducted with MTT at 96 hours after the addition of linamarin. 48 hours after infection the cells seeded in the cover slips were processed to perform immunofluorescence to detect linamarase.

W&Wlis tumors = assay: Xenotransplant model, W&Wlis tumors in immunodeficient mice; assay type: in vivo; conditions: intratumoral
Method: In addition, a dose range for linamarin was evaluated in immunodeficient (nude) mice weighing 20 grams, inoculated with W&W tumor cells which stably expressed linamarase (W&Wlis). When the tumor reached an approximate size of 50 mm^3, the mice were treated with a daily dose of intratumoral linamarin at different concentrations (0.5; 0.35; 0.25 or 0.10 mg lin/g of weight of the animal).
Another approach carried out for the invention was the use of adenoviruses carrying the linamarase gene (adenolis) in W&W cell tumors induced in immunodeficient mice. 10^6 cells were subcutaneously inoculated in both flanks in mice (n=18). Part of the animals (n=8) received W&Wlis cells which already expressed linamarase, while others (n=10) were inoculated with W&W cells and only when the tumor had developed was it locally infected with adenolis. The animals inoculated with W&Wlis were treated daily with 0.25 mg lin and 0.1 EU GO/g in the largest tumor at the beginning of treatment (approximately 50 mm^3) (FIGS. 7G and 7H). The animals showing W&W tumors were treated with infection cycles with 10^9 IU of adenolis, followed by a two-day treatment with 0.25 mg lin and 0.1 EU GO/g (FIGS. 7I and 7J). The progression of the tumors was evaluated every two days.
Immunodeficient (nude strain), athymic mice weighing approximately 20 grams and 2 months old were used. They were inoculated with 1-2×10^6 cells (W&W or W&Wlis) subcutaneously in both flanks of the mice by means of an injection with a volume of 50 μl in complete PBS (supplemented with calcium and magnesium ions) with 0.1% glucose. The size of the tumors (pi π/6×height×width×length) was measured with a calibrator.
A large group of mice (n=8) were inoculated with 1-2×10^6 W&Wlis cells as previously described. When the tumors reached a mean size of 30-50 mm^3, the tumors of one flank were treated daily with 0.25 mg of linamarin and 0.1 EU of glucose oxidase/g of weight of the animal. When the untreated tumors reached a size of about 2000 mm^3 the animals were sacrificed and it was considered the end of treatment. The data was analyzed statistically by Student's t test, considering a level of significance of 5%.

## CC(C)(C#N)O[C@@H]1O[C@H](CO)[C@@H](O)[C@H](O)[C@H]1O [lin, 2-hydroxy-isobutyronitrile-β-D-glucopyranoside]
W&Wlis cells [1]; 50 μg lin, 48 hours
  DNA content by flow cytometry, labeling with propidium iodide: 1.95
W&Wlis cells [1]; 50 μg lin, 72 hours
  DNA content by flow cytometry, labeling with propidium iodide: 2.77
W&Wlis cells [1]; 200 μg lin, 48 hours
  DNA content by flow cytometry, labeling with propidium iodide: 1.89
W&Wlis cells [1]; 200 μg lin, 72 hours
  DNA content by flow cytometry, labeling with propidium iodide: 3.14
W&Wlis cells [1]; 500 μg lin, 48 hours
  DNA content by flow cytometry, labeling with propidium iodide: 3.21
W&Wlis cells [1]; 500 μg lin, 72 hours
  DNA content by flow cytometry, labeling with propidium iodide: 4.91
W&Wlis cells [2]; 10 mM N-acetyl cysteine (NAC) in the medium
  effect of NAC addition on death in the cell viability assay by MTT: did not cause any effect
W&Wlis cells [2]; 96 hours, linamarin 200 to 500 μg/ml, without GO
  cell survival by MTT: drastic reduction of the survival
W&Wlis cells [2]; linamarin alone, or combined therapy at 500 μg/ml linamarin with 5 mEU/ml glucose oxidase
  time after which cell viability begins to decrease (MTT): 48 h
GB-LP-1 cells
  sensitivity of adenolis-infected cells to linamarin (survival): very sensitive to treatment with linamarin
W&Wlis tumors; 0.1 mg lin/g daily, n=4
  therapeutic effect on tumor growth: no therapeutic effect
W&Wlis tumors; 0.25 mg lin/g daily, after the tenth day of treatment, p=0.05, n=6
  therapeutic effect on tumor growth: significant reduction of the growth of the treated tumor
W&Wlis tumors; 0.35 mg lin/g daily, fifth day of treatment
  death of animals: death of three of the four animals
W&Wlis tumors; 0.5 mg lin/g daily, between the fourth and fifth day of treatment
  death of animals: all the animals

Source: US20100028366A1, “SYNERGISTIC EFFECT BETWEEN A […] AND ANOTHER OXIDATIVE INDUCING SYSTEM FOR TREATING TUMORS” (priority 2005, published 2010)
